Experimental data: patent publication US20250197374A1, “WEE1 DEGRADING COMPOUNDS AND USES THEREOF” (BRISTOL-MYERS SQUIBB COMPANY, priority 2023, published 2025)
pEC50: −log10 of the molar value.

Key:
Format in all cases: cell-based
MKN45 cells = assay: MKN45 cell proliferation assay (Cell-Titer-Glo, 120 hr); conditions: for pEC50: Homo sapiens, MKN-45, 120 h, read-out: MKN45 Cell Prolif. 120 hr EC50; for MKN45 Cell Prolif. 120 hr YMin (%): minimal percent of DMSO control observed
Method in brief: (§1)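 MKN45 (400/well) and MDA-MB-231 (800/well) cells in RPMI with 10% FBS were exposed to 10-point half-log doses from 1 or 10 uM (0.1% DMSO) for 120 h at 37 °C. Viability was read by CellTiter-Glo luminescence. EC50 came from blank-subtracted, %DMSO four-parameter fits, with Ymin-obs as the lowest %DMSO observed.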

MDA-MB-231 cells = assay: MDA-MB-231 cell proliferation assay (Cell-Titer-Glo, 120 hr); conditions: for pEC50: Homo sapiens, MDA-MB-231, 120 h, read-out: MDA-MB 231 Cell Prolif. 120 hr EC50; for MDA-MB 231 Cell Prolif. 120 hr YMin (%): minimal percent of DMSO control observed
Method in brief: as §1

WEE1 = target: T1, WEE1 (Homo sapiens, UniProt P30291+Q96SW2); assay: WEE1-ePL degradation assay (293T-LentiX, InCELL Hunter luminescence, 4 hr); conditions: for DC50: LentiX-HEK293T cells expressing WEE1-ePL, 4 hr incubation, read-out: 293T-LentiX WEE1-ePL Degradation 4 hr EC50; for 293T-LentiX WEE1-ePL Degradation 4 hr YMin (%): lower limit of fit, % of DMSO control signal remaining
T1 construct: C-terminal ePL-tagged (DiscoverX, Fremont, CA) full-length WEE1 expression construct; expressed in transfected cells; host or cells: LentiX-HEK293T (Invitrogen), lentivirally transduced; the cells also over-express GSPT1-GN
Method in brief: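 LentiX-HEK293T cells expressing C-terminally ePL-tagged full-length WEE1 plus non-degradable GSPT1-GN (G575N, N-terminal 158 aa truncated). Treated 4 h at 37 °C with a 10-point, 3-fold series from 1 or 10 µM, then read by InCELL Hunter luminescence. EC50 from four-parameter logistic fit, Ymax set by DMSO control.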

T1 sequence (P30291 whole entry): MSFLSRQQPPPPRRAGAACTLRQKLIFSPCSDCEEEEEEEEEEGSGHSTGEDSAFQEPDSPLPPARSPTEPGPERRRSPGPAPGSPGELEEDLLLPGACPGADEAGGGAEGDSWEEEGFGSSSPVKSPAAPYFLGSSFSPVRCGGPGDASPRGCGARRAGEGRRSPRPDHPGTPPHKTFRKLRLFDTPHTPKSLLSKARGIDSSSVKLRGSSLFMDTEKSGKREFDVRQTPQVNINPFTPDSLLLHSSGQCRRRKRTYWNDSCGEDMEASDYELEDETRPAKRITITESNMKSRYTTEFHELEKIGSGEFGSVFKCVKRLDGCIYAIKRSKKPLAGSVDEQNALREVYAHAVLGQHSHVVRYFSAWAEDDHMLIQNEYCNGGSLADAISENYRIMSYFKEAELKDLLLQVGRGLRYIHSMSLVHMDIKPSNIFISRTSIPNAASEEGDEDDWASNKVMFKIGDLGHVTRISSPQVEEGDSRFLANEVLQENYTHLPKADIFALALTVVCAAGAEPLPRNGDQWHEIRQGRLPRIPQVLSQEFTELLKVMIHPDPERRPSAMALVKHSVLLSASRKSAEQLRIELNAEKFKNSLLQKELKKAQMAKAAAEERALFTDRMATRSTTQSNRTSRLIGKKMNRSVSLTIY
T1 sequence (Q96SW2 whole entry): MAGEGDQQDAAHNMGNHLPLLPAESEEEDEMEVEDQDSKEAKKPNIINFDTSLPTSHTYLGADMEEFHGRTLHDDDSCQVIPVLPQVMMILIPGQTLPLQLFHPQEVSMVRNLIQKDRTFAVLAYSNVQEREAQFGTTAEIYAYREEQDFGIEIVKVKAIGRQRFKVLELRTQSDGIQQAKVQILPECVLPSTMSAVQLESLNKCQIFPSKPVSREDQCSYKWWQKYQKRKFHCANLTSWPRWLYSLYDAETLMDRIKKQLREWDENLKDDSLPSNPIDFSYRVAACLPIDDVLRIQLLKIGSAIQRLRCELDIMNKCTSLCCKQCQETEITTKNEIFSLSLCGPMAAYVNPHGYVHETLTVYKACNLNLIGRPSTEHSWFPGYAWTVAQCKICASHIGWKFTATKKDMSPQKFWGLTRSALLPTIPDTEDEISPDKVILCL
T1 sequence (Q16531 whole entry partner): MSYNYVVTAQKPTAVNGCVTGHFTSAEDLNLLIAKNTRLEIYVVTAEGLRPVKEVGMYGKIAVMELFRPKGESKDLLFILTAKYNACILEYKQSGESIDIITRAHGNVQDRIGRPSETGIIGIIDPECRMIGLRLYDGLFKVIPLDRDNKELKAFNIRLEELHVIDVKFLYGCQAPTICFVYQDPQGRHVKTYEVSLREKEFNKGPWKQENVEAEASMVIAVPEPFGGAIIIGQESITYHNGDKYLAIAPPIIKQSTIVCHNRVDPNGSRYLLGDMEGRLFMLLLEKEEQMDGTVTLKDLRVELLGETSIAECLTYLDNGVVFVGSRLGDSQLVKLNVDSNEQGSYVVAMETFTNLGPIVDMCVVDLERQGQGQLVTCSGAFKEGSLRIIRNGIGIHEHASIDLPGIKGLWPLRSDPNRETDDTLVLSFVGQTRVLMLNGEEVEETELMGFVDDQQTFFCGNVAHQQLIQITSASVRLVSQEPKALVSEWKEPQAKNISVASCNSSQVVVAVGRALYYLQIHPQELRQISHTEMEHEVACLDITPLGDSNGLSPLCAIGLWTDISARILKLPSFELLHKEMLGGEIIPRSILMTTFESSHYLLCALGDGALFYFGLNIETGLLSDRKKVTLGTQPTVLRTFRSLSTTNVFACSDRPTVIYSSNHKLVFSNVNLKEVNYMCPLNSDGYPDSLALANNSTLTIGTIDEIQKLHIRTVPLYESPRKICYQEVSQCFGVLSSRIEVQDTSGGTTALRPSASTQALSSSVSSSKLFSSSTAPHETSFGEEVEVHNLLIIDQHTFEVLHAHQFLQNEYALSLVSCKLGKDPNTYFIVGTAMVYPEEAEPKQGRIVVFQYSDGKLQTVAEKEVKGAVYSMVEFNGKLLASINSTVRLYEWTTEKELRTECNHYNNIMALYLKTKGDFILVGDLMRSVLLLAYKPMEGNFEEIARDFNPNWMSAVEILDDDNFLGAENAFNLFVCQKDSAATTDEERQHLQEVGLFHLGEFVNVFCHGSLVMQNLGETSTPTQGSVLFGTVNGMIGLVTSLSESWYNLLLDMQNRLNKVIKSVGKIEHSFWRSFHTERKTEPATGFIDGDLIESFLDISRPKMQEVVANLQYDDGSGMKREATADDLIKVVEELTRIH

Compound | pEC50 (MKN45 cells) | pEC50 (MDA-MB-231 cells) | DC50 (WEE1) [nM] | 293T-LentiX WEE1-ePL Degradation 4 hr YMin (%) (WEE1) | MKN45 Cell Prolif. 120 hr YMin (%) (MKN45 cells) | MDA-MB 231 Cell Prolif. 120 hr YMin (%) (MDA-MB-231 cells)
COC[C@@H]1CN(Cc2cc(F)c3nc(N4CCCC4=O)ncc3c2)C[C@H]1Oc1ccc2c(c1)CN([C@H]1CCC(=O)NC1=O)C2=O [Example 61, (3S)-3-(5-{[(3S,4S)-1-{[8-fluoro-2-(2-oxopyrrolidin-1-yl)quinazolin-6-yl]methyl}-4-(methoxymethyl)pyrrolidin-3-yl]oxy}-1-oxo-2,3-dihydro-1H-isoindol-2-yl)piperidine-2,6-dione] | 8.05 | 7.01 | 25 | 29.3 | 12.0 | 41.3
COC[C@@H]1CN(Cc2cc3ccc(N4CCN(CC(F)(F)F)CC4)cc3cn2)C[C@H]1Oc1ccc2c(c1)CN([C@H]1CCC(=O)NC1=O)C2=O [Example 39, (3S)-3-(5-{[(3S,4S)-4-(methoxymethyl)-1-({7-[4-(2,2,2-trifluoroethyl)piperazin-1-yl]isoquinolin-3-yl}methyl)pyrrolidin-3-yl]oxy}-1-oxo-2,3-dihydro-1H-isoindol-2-yl)piperidine-2,6-dione] | 9.00 | 7.60 | – | 31.6 | 10.3 | 41.6
COC[C@@H]1CN(Cc2cc3ccc(N4CCOCC4)c(F)c3cn2)C[C@H]1Oc1ccc2c(c1)CN([C@H]1CCC(=O)NC1=O)C2=O [Example 48, (3S)-3-(5-{[(3S,4S)-1-{[8-fluoro-7-(morpholin-4-yl)isoquinolin-3-yl]methyl}-4-(methoxymethyl)pyrrolidin-3-yl]oxy}-1-oxo-2,3-dihydro-1H-isoindol-2-yl)piperidine-2,6-dione] | 9.00 | 8.40 | – | 22.9 | 7.8 | 22.0
COC[C@@H]1CN(Cc2cc(F)c3nc(COC4CCN(C)CC4)ncc3c2)C[C@H]1Oc1ccc2c(c1)CN([C@H]1CCC(=O)NC1=O)C2=O [Example 43, (3S)-3-(5-{[(3S,4S)-1-[(8-fluoro-2-{[(1-methylpiperidin-4-yl)oxy]methyl}quinazolin-6-yl)methyl]-4-(methoxymethyl)pyrrolidin-3-yl]oxy}-1-oxo-2,3-dihydro-1H-isoindol-2-yl)piperidine-2,6-dione] | 7.42 | 6.28 | 133 | 34.3 | 10.0 | 51.3
COC[C@@H]1CN(Cc2cc3ccc(N4CCOCC4)cc3cn2)C[C@H]1Oc1ccc2c(c1)CN([C@H]1CCC(=O)NC1=O)C2=O [Example 28, (3S)-3-(5-{[(3S,4S)-4-(methoxymethyl)-1-{[7-(morpholin-4-yl)isoquinolin-3-yl]methyl}pyrrolidin-3-yl]oxy}-1-oxo-2,3-dihydro-1H-isoindol-2-yl)piperidine-2,6-dione] | 9.00 | 7.32 | 1 | 29.1 | 11.2 | 22.1
COC[C@@H]1CN(Cc2cc3ccc(C(C)(C)O)cc3cn2)C[C@H]1Oc1ccc2c(c1)CN([C@H]1CCC(=O)NC1=O)C2=O [Example 40, (3S)-3-(5-{[(3S,4S)-1-{[7-(2-hydroxypropan-2-yl)isoquinolin-3-yl]methyl}-4-(methoxymethyl)pyrrolidin-3-yl]oxy}-1-oxo-2,3-dihydro-1H-isoindol-2-yl)piperidine-2,6-dione] | 8.30 | 6.64 | 3 | 30.9 | 10.2 | 1.8

The next lines start with results.

pEC50 (MKN45 cells) | pEC50 (MDA-MB-231 cells) | DC50 (WEE1) [nM] | 293T-LentiX WEE1-ePL Degradation 4 hr YMin (%) (WEE1) | Compound | MKN45 Cell Prolif. 120 hr YMin (%) (MKN45 cells) | MDA-MB 231 Cell Prolif. 120 hr YMin (%) (MDA-MB-231 cells)
– | 7.92 | 1 | 28.0 | COC[C@@H]1CN(Cc2cc3ccc(C4CCC(C(C)(C)O)CC4)cc3cn2)C[C@H]1Oc1ccc2c(c1)CN([C@H]1CCC(=O)NC1=O)C2=O (relative stereo) [Example 112, rel-(S)-3-(5-(((3S,4S)-1-((7-(4-(2-hydroxypropan-2-yl)cyclohexyl)isoquinolin-3-yl)methyl)-4-(methoxymethyl)pyrrolidin-3-yl)oxy)-1-oxoisoindolin-2-yl)piperidine-2,6-dione] | 8.7 | 25.2
8.70 | 7.59 | 2 | 27.5 | COC[C@@H]1CN(Cc2ccc3nc(C4CCN(C(C)=O)C(C)(C)C4)ncc3c2)C[C@H]1Oc1ccc2c(c1)CN([C@H]1CCC(=O)NC1=O)C2=O (stereo partly drawn) [Example 82, (3S)-3-(5-{[(3S,4S)-1-{[2-(1-acetyl-2,2-dimethylpiperidin-4-yl)quinazolin-6-yl]methyl}-4-(methoxymethyl)pyrrolidin-3-yl]oxy}-1-oxo-2,3-dihydro-1H-isoindol-2-yl)piperidine-2,6-dione] | 9.0 | 17.9
7.39 | 6.54 | 2 | 31.9 | COC[C@@H]1CN(Cc2ccc3nc(C4CCOCC4)cnc3c2)C[C@H]1Oc1ccc2c(c1)CN([C@H]1CCC(=O)NC1=O)C2=O [Example 136, (3S)-3-(5-{[(3S,4S)-4-(methoxymethyl)-1-{[2-(oxan-4-yl)quinoxalin-6-yl]methyl}pyrrolidin-3-yl]oxy}-1-oxo-2,3-dihydro-1H-isoindol-2-yl)piperidine-2,6-dione] | 26.6 | 91.8
8.30 | 6.97 | 3 | 32.7 | COC[C@@H]1CN(Cc2cc(F)c3nc(C4CCCN4C)ccc3c2)C[C@H]1Oc1ccc2c(c1)CN([C@H]1CCC(=O)NC1=O)C2=O (relative stereo) [Example 66, rel-(3S)-3-(5-(((3S,4S)-1-((8-fluoro-2-(1-methylpyrrolidin-2-yl)quinolin-6-yl)methyl)-4-(methoxymethyl)pyrrolidin-3-yl)oxy)-1-oxoisoindolin-2-yl)piperidine-2,6-dione] | 13.9 | 57.1
9.00 | 5.59 | – | 85.0 | O=C1CC[C@H](N2Cc3cc(O[C@@H]4CN(Cc5cc(F)c6nc(C7CCOCC7)ccc6c5)C[C@H]4c4ccccc4)ccc3C2=O)C(=O)N1 (relative stereo) [Example 116, (S)-3-(5-(((3S*,4R*)-1-((8-fluoro-2-(tetrahydro-2H-pyran-4-yl)quinolin-6-yl)methyl)-4-phenylpyrrolidin-3-yl)oxy)-1-oxoisoindolin-2-yl)piperidine-2,6-dione] | 83.5 | 89.1
